The source of these data is patent US20230139883A1, “Peptides for Inducing Differentiation” (Shimadzu Corporation, priority 2020, published 2023).

For data set [1], the system named is iPS-hFB. Type of data set: cell-based. As to the method: An attempt to apply 100nX to a differentiation induction system from iPS cells to hepatocytes was made. […] Then, cells were seeded in 6-well plates at 1.5×10^5 cells/well. […] The medium was replaced on Day 3 using the same medium. The medium was removed on Day 5 and RPMI1640 supplemented with B-27 Plus Supplement (Thermo), 20 ng/mL BMP4, and 20 ng/mL bFGF was added at 2 mL/well (conventional protocol; FIG. 14, protocol 1). […] Further, as a control group, RPMI1640 supplemented with B-27 Plus Supplement (Thermo), and 20 ng/mL BMP4 was added at 2 mL/well (conventional protocol; FIG. 14, protocol 2). The medium was replaced on Day 8 using the same medium. In all conditions, the medium was removed on Day 10, and RPMI1640 supplemented with B-27 Plus Supplement (Thermo), and 20 ng/mL HGF was added at 2 mL/well. The medium was replaced on Day 12 and Day 14 using the same medium. The medium was exchanged with HCM BulletKit (Lonza) (containing HBM, Ascorbic Acid, BSA-FAF, Hydrocortisone, Transferin, GA-1000, and Insulin) on Day 15 at 2 mL/well. On Day 17 and Day 18, the medium was exchanged with the same medium.

The test system of data set [2] is FGFR1. Nature of the data set: Phage display selection against FGFR1 with Miseq analysis of the bound phages. The class given is binding. As to the method: The collected phage library was mixed with 100 nM of FGFR3 solution and allowed to react overnight at 4° C. (Table 5: Panning Round 1). After the reaction, the binding phages were captured by magnetic beads modified with protein A, and washed three times with PBS-T, followed by eluting the bound phages with Gly-HCl (pH 2.0). After neutralizing with 2M Tris, the phages were infected to E. coli. After 4 hours of incubation, helper phages were added, and the E. coli were allowed to produce phages overnight. Next, phage solution was prepared from the culture supernatant. The prepared phage solution was mixed with FGFR3 solution and allowed to react overnight at 4° C. (Table 5: Panning Round 2). After the reaction, the bound phages were eluted. Phage solution prepared in the same way was mixed with FGFR3 solution and allowed to react at 4° C. for 1 hour (Table 5: Panning Round 3). After the reaction, the bound phages were eluted. This operation was repeated two more times, and after Panning Round 5, the bound phages were eluted. Note that as the rounds proceeded, the number of washes with PBS-T was increased. (Table 5). The titer of the Output phage in each round was also determined. The titer of phage was determined from the number of colonies obtained by incubating the E. coli TG1 strain contacted with the phage at 37° C. overnight. As shown in FIG. 3<Input phage (Round 5)>, the eluted phage library after panning was subjected to Human IgG Fc-immobilized plate, and negative selection was performed by collecting unbound phages. The phage library was then acted to FGFR1 prepared to concentrations of 100 nM, 10 nM, and 1 nM. Bound phages were then collected. The phagemid DNA of the collected phages was extracted, samples were prepared according to Illumina's protocol for Miseq, and a comprehensive analysis of the phagemid DNA was performed. Among the sequences obtained, 23 sequences with high incidence rates were selected (Table 6).

Data set [3] relates to iPS-hFB. Kind of data set: CYP3A4 activity (luciferin-IPA) of hepatocytes induced to differentiate from iPS cells. The class given is cell-based. To be noted: Day 20, luminescence corrected by protein. As to the method: Differentiation of iPS cells was induced in the same manner as in Example 13. After the cells were washed with PBS on Day 20, the medium was exchanged with HCM BulletKit (Lonza) containing 3 μM luciferin-IPA at 1 mL/well. After 1 hour of reaction at 37° C., 100 μL of the supernatant was transferred to a 96-well white plate., and Luciferin Detection Reagent was added at 100 μL/well. After 20 minutes of reaction at room temperature, the luminescence was measured. The cells were also crushed and the luminescence value was corrected by quantifying proteins with TaKaRa BCA Protein Assay Kit (Takara Bio).

The test system of data set [4] is iPS-hFB. Kind of data set: Differentiation induction of iPS cells into neurons: RT-qPCR of SYN1, MAP2 and Nr2f1. The conditions noted are these: for Nr2f1 gene expression level: 0.25 nM peptide on Day 3, Day 35. The class given is cell-based. As to the method:
An attempt to apply 100nX to a differentiation induction system from iPS cells to neurons was made. […] A group in which G-MEM supplemented with 20% KSR (Thermo), 1xNEAA (Thermo), 0.1 mM 2-mercaptoethanol (Wako Pure Chemicals), 1 mM sodium pyruvate (Thermo), 20 μM Y27632 (Wako Pure Chemicals), 3 μM IWR-1-endo (Wako Pure Chemicals), 5 μM SB431542 (Wako Pure Chemicals) was added at 100 μL/well was prepared as a control group (FIG. 14, protocol 2). On Day 6, the entire medium was replaced with the medium of each condition containing no Y27632 (Wako Pure Chemicals). Likewise, the medium was exchanged at Day 10 and Day 14. The medium was removed on Day 18 and the cells added with DMEM/F12 (GlutaMax) (Thermo) containing 1% N-2 Supplement and 1% Chemically Defined Lipid Concentrate were transferred to EZSPHERE (AGC Technoglass) at 2 mL/well. On Day 21, 24, and 27, the medium was replaced with DMEM/F12 (GlutaMax) (Thermo) containing 1% N-2 Supplement. Further, On Day 30, and 33, the medium was replaced with DMEM/F12 (GlutaMax) (Thermo) containing 1% N-2 Supplement and 1% Chemically Defined Lipid Concentrate.

The subject of data set [5] is iPS-hFB. Kind of data set: Differentiation induction of iPS cells into cardiomyocytes: observation of beating cell clusters. To be noted: Example 3: 0.05 μM peptide + Activin A on Day 1, no bFGF.
Data set [6] deals with FGFR. Nature of the data set: Binding to FGFR by surface plasmon resonance (Biacore T200). The conditions noted are these: SPR, 25° C., FGFR1, FGFR2 or FGFR3 immobilized (FIG. 4). The text has this:
One clone was selected from the amino acid sequences of the clones obtained above, and the peptide of 100nX (X is 9: SEQ ID NO: 9, the same shall apply hereinafter.) was synthesized. The peptide was synthesized based on the Fmoc solid-phase synthesis method. To measure the binding activity of the peptides, according to the operation manual of the SPR instrument Biacore T200 (GE Healthcare), FGFR1 was immobilized as a ligand to the instrument's sensor chip CMS using the amine coupling method. In addition, to confirm binding to other FGFR species, FGFR2 or FGFR3-immobilized sensor chips were also prepared. Ethanolamine was immobilized as a reference, and the samples were measured as analyte.
All measurements were performed at 25° C. and HBS-EP+ was used as the running buffer. After injecting the running buffer dissolving the peptide into the CMS sensor chip immobilized with various FGFRs (flow rate 30 μl/min, 2 min), the peptide was dissociated by flowing the running buffer for 3 min. The obtained sensorgram was directly curve-fitted with the reaction equation, and the rate constant was calculated by a nonlinear least-squares method. Dissociation constants were calculated by kinetic analysis using Biacore T200 Evaluation Software (GE Healthcare). A 1:1 binding model was used in the analysis.

Data set [7] relates to iPS-hFB. Kind of data set: Differentiation induction of iPS cells into cardiomyocytes: RT-qPCR of cardiomyocyte markers cTNT and Actinin. The conditions noted are these: Example 4: peptide in combination with bFGF, Day 23; compared to conventional protocol 1.
The mark [8] stands for this setting: 0.25 nM peptide, Day 35, compared to control protocol 2 (no bFGF).

Turning to “CAAELAALEAELAALEGVPGDNNGTRGKLYHLKNKLHRLKNAC [100n9]”, in data set [1], the “promotion of hepatic differentiation” value was “as effective as or better than conventional bFGF”. The “1 nM Num. of reads” value in data set [2] (phage library after panning Round 5, bound to 1 nM FGFR1) was 6403. Moreover, in data set [2] (phage library after panning Round 5, bound to 10 nM FGFR1), the “10 nM Num. of reads” value is reported as 7169. Moreover, the “100 nM Num. of reads” value in data set [2] (phage library after panning Round 5, bound to 100 nM FGFR1) was 6135. Further, in data set [2] (rank by number of reads, 1 nM FGFR1), the “1 nM Ranking” value was found to be 4. Moreover, the “10 nM Ranking” value in data set [2] (rank by number of reads, 10 nM FGFR1) stood at 3. For the same sequence, in data set [2] (rank by number of reads, 100 nM FGFR1), the “100 nM Ranking” value is on record as 3. Besides, the CYP3A4 activity result in data set [3] (compared to control protocol 2 (BMP4)) was “significantly increased”; in data set [3] (compared to conventional protocol 1 (BMP4, bFGF)) it was “similar”. The “Nr2f1 gene expression level” value is “significantly increased” in data set [4] (compared to control protocol 2 (no bFGF)) and “similar” in data set [4] (compared to conventional protocol 1 (bFGF)). Also, in data set [4] (setting [8]), the “MAP2 gene expression level” value is “tended to increase”. Besides, the “SYN1 gene expression level” value in data set [4] (setting [8]) is “tended to increase”. In addition, the “promotion of / contribution to neural differentiation” value in data set [4] (overall, relative to bFGF) was “as effective as conventional bFGF”. In addition, the “day on which beating cell clusters were observed” value in data set [5] was no less than 16 days. Moreover, the “binding affinity to the FGFR” value in data set [6] was “high binding affinity”. Besides, the “gene expression levels (cTNT, ACTN2)” value in data set [7] is on record as “significantly increased”.
